# Reference: US9102591B2, “Benzamides” (H. Lundbeck A/S, priority 2012, dated 2015)
# Target: P2X7 receptor (Homo sapiens (Human), UniProt Q99572)
# Test: P2X7 FLIPR assay (BzATP-stimulated calcium fluorescence, antagonist IC50)
# Type: cell-based
# Settings: not given
# In short: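 Cells expressing P2X7 receptor (human, rat or mouse), plated 24 hours earlier in low-serum medium, loaded with Fluo-4 NW dye (30 min 37° C, 30 min room temperature).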
# Chain of P2X7 receptor (Q99572 whole entry): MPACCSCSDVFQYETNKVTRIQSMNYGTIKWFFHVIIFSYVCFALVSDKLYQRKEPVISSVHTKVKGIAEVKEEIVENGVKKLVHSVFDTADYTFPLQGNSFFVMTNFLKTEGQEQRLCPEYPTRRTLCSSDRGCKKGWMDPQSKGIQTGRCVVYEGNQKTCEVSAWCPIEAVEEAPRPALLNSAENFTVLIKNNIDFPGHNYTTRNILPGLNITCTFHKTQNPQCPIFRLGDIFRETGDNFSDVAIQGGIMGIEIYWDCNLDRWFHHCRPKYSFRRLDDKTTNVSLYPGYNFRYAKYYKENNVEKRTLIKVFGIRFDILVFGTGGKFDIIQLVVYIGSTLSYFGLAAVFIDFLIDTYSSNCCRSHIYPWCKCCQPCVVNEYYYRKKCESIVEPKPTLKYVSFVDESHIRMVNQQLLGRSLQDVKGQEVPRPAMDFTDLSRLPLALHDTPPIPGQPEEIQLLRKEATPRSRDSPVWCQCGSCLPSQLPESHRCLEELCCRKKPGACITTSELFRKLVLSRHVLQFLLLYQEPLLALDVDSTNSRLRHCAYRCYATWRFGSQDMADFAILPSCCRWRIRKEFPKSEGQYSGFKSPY
row,Structure (SMILES),IC50
1,"O=C(NCC(CC1(F)CC1)c1ccc(C(F)(F)F)nc1)c1cccc(Cl)c1Cl (stereo not drawn) [2,3-dichloro-N-[3-(1-fluorocyclopropyl)-2-[6-(trifluoromethyl)-3-pyridyl]propyl]benzamide]",0.0037 µM
2,"O=C(NCC1(c2cnc(C(F)(F)F)nc2)CCC(F)(F)CC1)c1cccc(Cl)c1Cl [2,3-dichloro-N-[[4,4-difluoro-1-[2-(trifluoromethyl)pyrimidin-5-yl]cyclohexyl]methyl]benzamide]",0.00095 µM
3,O=C(NCC(c1ccncc1)c1ccc(C(F)(F)F)nc1)c1ccccc1Cl (stereo not drawn) [2-chloro-N-[2-(4-pyridyl)-2-[6-(trifluoromethyl)-3-pyridyl]ethyl]benzamide],0.011 µM
4,"Cc1ncc(C2(CNC(=O)c3cccc(Cl)c3Cl)CCOC2)cn1 (stereo not drawn) [2,3-dichloro-N-((3-(2-methylpyrimidin-5-yl)tetrahydrofuran-3-yl)methyl)benzamide]",0.015 µM
5,"Cc1ncc(C(CNC(=O)c2ccccc2Cl)C2CCOCC2)cn1 (single isomer, unassigned; (+)) [(+)2-chloro-N-[2-(2-methylpyrimidin-5-yl)-2-tetrahydropyran-] [(+)2-chloro-N-[2-(2-methylpyrimidin-5-yl)-2-tetrahydropyran-4-yl-ethyl]benzamide]",0.97 µM
6,O=C(NCC(CC1(C(F)(F)F)CC1)c1ccc(C2CC2)nc1)c1ccccc1Cl (stereo not drawn) [2-chloro-N-[2-(6-cyclopropyl-3-pyridyl)-3-[1-(trifluoromethyl)cyclopropyl]propyl]benzamide],0.094 µM
7,"O=C(NCC(c1ccncc1)c1ccc(C(F)(F)F)nc1)c1cccc(Cl)c1Cl (stereo not drawn) [2,3-dichloro-N-[2-(4-pyridyl)-2-[6-(trifluoromethyl)-3-pyridyl]ethyl]benzamide]",0.2 µM
8,O=C(NCC(c1ccc(Cl)cc1)C1CCOCC1)c1cccc(F)c1Cl (stereo not drawn) [2-chloro-N-[2-(4-chlorophenyl)-2-tetrahydropyran-4-yl-ethyl]-3-fluoro-benzamide],0.015 µM
9,O=C(NCC(c1ccc(Cl)cc1)C1CCOCC1)c1ccccc1Cl (stereo not drawn) [2-chloro-N-[2-(4-chlorophenyl)-2-tetrahydropyran-4-yl-ethyl]benzamide],0.014 µM
10,"Cc1cccc(C(=O)NCC2(c3ccc(C(F)(F)F)nc3)CCC(F)(F)CC2)c1Cl [2-chloro-N-((4,4-difluoro-1-(6-(trifluoromethyl)pyridin-3-yl)cyclohexyl)methyl)-3-methylbenzamide]",0.00054 µM

# The next lines start with the values.
row,IC50,Structure (SMILES)
1,0.045 µM,"O=C(NCC(c1cnc(C(F)(F)F)nc1)C1CCC(F)(F)CC1)c1cccc(F)c1Cl (single isomer, unassigned; (+)) [(+)2-chloro-N-[2-(4,4-difluorocyclohexyl)-2-[2-(trifluoromet] [(+)2-chloro-N-[2-(4,4-difluorocyclohexyl)-2-[2-(trifluoromethyl)pyrimidin-5-yl]ethyl]-3-fluoro-benzamide]"
2,1.4 µM,COc1ccc(C2(CNC(=O)c3ccccc3C)CCCC2)cc1 [N-[1-(4-Methoxy-phenyl)-cyclopentylmethyl]-2-methyl-benzamide]
3,0.0044 µM,"COc1cccc(C(=O)NCC(CC2CC2)c2ccc(C(F)F)nc2)c1Cl (single isomer, unassigned; (+)) [(+)2-chloro-N-[3-cyclopropyl-2-[6-(difluoromethyl)-3-pyridyl]propyl]-3-methoxy-benzamide]"
4,0.03 µM,"CC(C)(O)c1ccc(C(CNC(=O)c2cccc(Cl)c2Cl)CC2CC2)cn1 (single isomer, unassigned; (-)) [(−)2,3-dichloro-N-[3-cyclopropyl-2-[6-(1-hydroxy-1-methyl-et] [(−)2,3-dichloro-N-[3-cyclopropyl-2-[6-(1-hydroxy-1-methyl-ethyl)-3-pyridyl]propyl]benzamide]"
5,0.078 µM,"Cc1cccc(C(=O)NCC2(c3ccc(F)nc3)CCC(F)(F)CC2)c1F [N-((4,4-difluoro-1-(6-fluoropyridin-3-yl)cyclohexyl)methyl)-2-fluoro-3-methylbenzamide]"
6,0.0047 µM,"O=C(NCC(CC1CC1)c1cnc(C(F)(F)F)nc1)c1cccc(F)c1Cl (single isomer, unassigned; (-)) [(−)2-chloro-N-[3-cyclopropyl-2-[2-(trifluoromethyl)pyrimidin] [(−)2-chloro-N-[3-cyclopropyl-2-[2-(trifluoromethyl)pyrimidin-5-yl]propyl]-3-fluoro-benzamide]"
7,0.0026 µM,"Cc1ccccc1C(=O)NCC1(c2ccc(C(F)(F)F)nc2)CCC(F)(F)CC1 [N-((4,4-difluoro-1-(6-(trifluoromethyl)pyridin-3-yl)cyclohexyl)methyl)-2-methylbenzamide]"

# Same assay, conditions: listed as (−)2-chloro-N-[3-cyclopropyl-2-(6-fluoro-3-pyridyl)propyl]benzamide
row,IC50,Structure (SMILES)
1,0.016 µM,"O=C(NCC(CC1CC1)c1ccc(F)nc1)c1ccccc1Cl (single isomer, unassigned; (-)) [Example 4x, (−)-2-chloro-N-(3-cyclopropyl-2-(6-fluoropyridin-3-yl)propyl)benzamide]"
